In data set [1] the target is T1, ABL (Homo sapiens, UniProt P00519).
T1 construct: purchased Carna Biosciences
The experiment in a line: Off-chip Mobility Shift Assay. Particulars: read-out: IC50, recombinant ABL activity. The class given is biochemical.

Data set [2] deals with T2, ABL(E255K) (Homo sapiens, UniProt P00519, E255K).
T2 construct: purchased Carna Biosciences
The experiment in a line: Off-chip Mobility Shift Assay. Format: biochemical. Conditions: read-out: IC50, recombinant ABL (E255K) activity.

In data set [3] the target is T3, BTK (Homo sapiens, UniProt Q06187).
T3 construct: purchased Carna Biosciences
T3 sequence (Q06187 whole entry): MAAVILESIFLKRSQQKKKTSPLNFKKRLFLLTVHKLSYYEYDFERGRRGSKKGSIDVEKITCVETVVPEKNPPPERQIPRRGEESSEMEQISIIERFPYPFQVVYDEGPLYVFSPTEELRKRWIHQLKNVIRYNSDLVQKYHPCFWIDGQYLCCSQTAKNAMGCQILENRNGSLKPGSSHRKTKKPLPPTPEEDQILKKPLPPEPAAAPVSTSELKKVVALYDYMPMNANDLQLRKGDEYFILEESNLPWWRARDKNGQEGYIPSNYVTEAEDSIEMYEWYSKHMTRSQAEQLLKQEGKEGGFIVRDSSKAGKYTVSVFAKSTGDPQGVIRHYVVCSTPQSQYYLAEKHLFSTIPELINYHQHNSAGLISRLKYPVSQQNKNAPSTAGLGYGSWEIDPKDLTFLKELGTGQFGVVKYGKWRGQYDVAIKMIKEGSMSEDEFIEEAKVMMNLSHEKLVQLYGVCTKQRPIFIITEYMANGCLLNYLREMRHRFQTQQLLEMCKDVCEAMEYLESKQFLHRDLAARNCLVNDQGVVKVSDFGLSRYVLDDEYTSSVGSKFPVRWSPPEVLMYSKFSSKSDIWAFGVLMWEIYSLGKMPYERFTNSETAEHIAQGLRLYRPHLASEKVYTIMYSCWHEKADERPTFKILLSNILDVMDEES
The data set is described as follows: Off-chip Mobility Shift Assay. Conditions: read-out: IC50, recombinant BTK activity. The class given is biochemical.

In data set [4] the target is T4, BTK (C481S) (Homo sapiens, UniProt Q06187, C481S).
T4 construct: purchased Carna Biosciences
T4 sequence (Q06187 whole entry C481S): as the sequence (Q06187 whole entry) above, with C481S counted along it
The data set is described as follows: Off-chip Mobility Shift Assay. Format: biochemical. Conditions: read-out: IC50, recombinant BTK (C481S) activity.

A short description of data set [5]: Metabolic stability in human liver microsomes. The class given is in vitro ADME. Conditions: for metabolic stability as compared to dasatinib: human liver microsomes; for microsomal CLint at 1 μM / half-life at 1 μM: human, liver microsomes, human liver microsomes 0.5 mg/mL, NADPH and UDPGA, 37° C.; for microsomal CLint at 1 μM: read-out: CLint (intrinsic clearance); for half-life at 1 μM: read-out: In vitro t1/2. Here is the method:
FIG. 1. Metabolic stability of compounds in human liver microsomal incubations. […] Concentrations at specified times were determined by LC-MS/MS.
The incubation reactions at various time points were quenched by adding 2× volumes of acetonitrile containing 100 nM reserpine. The quenched incubation samples were centrifuged at 4000 RPM for 10 min, and the supernatants injected for LC/MS/MS analysis. LC/MS/MS analysis was carried out on a AB Sciex 4000 Q Trap LC/MS/MS system coupled with Shimadzu Prominence UFLCXR 20 series (including a CBM-20A controller, two LC-20ADXR solvent delivery units, SIL-20AC HT autosampler, CTO-20A column oven, and a SPD-20A UV detector).
On the technique in general: Microsomes from liver hold many membrane-bound enzymes, among them those of drug oxidation.

Data set [6] can be described thus: Pharmacokinetics in Sprague-Dawley rats, 2-in-1 dosing. The class given is in vivo. Conditions: for intravenous plasma clearance compared to dasatinib and compound III / intravenous volume of distribution compared to dasatinib and compound III: Sprague-Dawley rats; for clearance / Vd: single dose (Table 3); for clearance: read-out: CL (plasma clearance) (converted); for Vd: read-out: V (volume of distribution); for AUC(0-inf) / AUC(0-t) / half-life / Cmax / Tmax: single dose, plasma (Table 3); for half-life: read-out: t½ (converted). Here is the method: Sprague-Dawley rats (approximate weight 275-300 g, N=3) were dosed intravenously at 5 mL/kg and orally at 10 mL/kg with the above dosing solutions. Blood samples were collected into tubes containing EDTA as the anticoagulant at 0, 0.25 (intravenous only), 0.5, 1, 2, 4, 8, 10, and 24 h post-dosing, and plasma samples were prepared by centrifugation. The plasma samples were mixed with 3× volumes of acetonitrile containing 100 nM reserpine as the internal standard, and centrifuged at 4000 RPM for 15 min. The supernatants were injected for LC/MS analysis which were carried out on a AB Sciex 4000 Q Trap LC/MS/MS system coupled with Shimadzu Prominence UFLCXR 20 series (including a CBM-20A controller, two LC-20ADXR solvent delivery units, SIL-20AC HT autosampler, CTO-20A column oven, and a SPD-20A UV detector). The samples were separated on a Phenomenex Columbus column (C18, 4 μm, 50×2 mm) eluted with two solvent systems: 2 mM ammonium acetate in water containing 0.1% formic acid (A) and methanol (B) at a linear gradient starting with 25% B. Electrospray ionization in positive mode was used to acquire LC/MS/MS data.

The nature of data set [7]: Lung tissue and plasma concentration ratios in mice. The class given is in vivo, CD-1 mouse. Particulars: single oral dose 5 mg/kg, 2-in-1 with dasatinib, all time points tested. Here is the method:
CD-1 mouse (approximate weight 30 g, N=3) were dosed by oral gavage at 10 mL/kg. Blood samples were collected into tubes containing EDTA as the anticoagulant at 1, 2, 4, 10 h post-dosing for Compound X, and predose, 1, 2, 3, 8, 10 and 24 h post-dosing for Compound XI. The plasma samples were prepared by centrifugation. Lung samples were also collected at each of the above time points. The lung samples were homogenated in 4× distilled water (v/w). The plasma samples and the homogenated lung tissue samples were mixed with 3× volumes of acetonitrile containing 100 nM reserpine as the internal standard, and centrifuged at 4000 RPM for 15 min. The supernatants were injected for LC/MS analysis which were carried out on a AB Sciex 4000 Q Trap LC/MS/MS system coupled with Shimadzu Prominence UFLCXR 20 series (including a CBM-20A controller, two LC-20ADXR solvent delivery units, SIL-20AC HT autosampler, CTO-20A column oven, and a SPD-20A UV detector). The samples were separated on a Phenomenex Columbus column (C18, 4 μm, 50×2 mm) eluted with two solvent systems: 2 mM ammonium acetate in water containing 0.1% formic acid (A) and methanol (B) at a linear gradient starting at 25%. Electrospray ionization in positive mode was used to acquire LC/MS/MS data.

In data set [8] the target is T5, ACK (Homo sapiens, UniProt Q07912).
T5 construct: purchased Carna Biosciences
T5 sequence (Q07912 whole entry): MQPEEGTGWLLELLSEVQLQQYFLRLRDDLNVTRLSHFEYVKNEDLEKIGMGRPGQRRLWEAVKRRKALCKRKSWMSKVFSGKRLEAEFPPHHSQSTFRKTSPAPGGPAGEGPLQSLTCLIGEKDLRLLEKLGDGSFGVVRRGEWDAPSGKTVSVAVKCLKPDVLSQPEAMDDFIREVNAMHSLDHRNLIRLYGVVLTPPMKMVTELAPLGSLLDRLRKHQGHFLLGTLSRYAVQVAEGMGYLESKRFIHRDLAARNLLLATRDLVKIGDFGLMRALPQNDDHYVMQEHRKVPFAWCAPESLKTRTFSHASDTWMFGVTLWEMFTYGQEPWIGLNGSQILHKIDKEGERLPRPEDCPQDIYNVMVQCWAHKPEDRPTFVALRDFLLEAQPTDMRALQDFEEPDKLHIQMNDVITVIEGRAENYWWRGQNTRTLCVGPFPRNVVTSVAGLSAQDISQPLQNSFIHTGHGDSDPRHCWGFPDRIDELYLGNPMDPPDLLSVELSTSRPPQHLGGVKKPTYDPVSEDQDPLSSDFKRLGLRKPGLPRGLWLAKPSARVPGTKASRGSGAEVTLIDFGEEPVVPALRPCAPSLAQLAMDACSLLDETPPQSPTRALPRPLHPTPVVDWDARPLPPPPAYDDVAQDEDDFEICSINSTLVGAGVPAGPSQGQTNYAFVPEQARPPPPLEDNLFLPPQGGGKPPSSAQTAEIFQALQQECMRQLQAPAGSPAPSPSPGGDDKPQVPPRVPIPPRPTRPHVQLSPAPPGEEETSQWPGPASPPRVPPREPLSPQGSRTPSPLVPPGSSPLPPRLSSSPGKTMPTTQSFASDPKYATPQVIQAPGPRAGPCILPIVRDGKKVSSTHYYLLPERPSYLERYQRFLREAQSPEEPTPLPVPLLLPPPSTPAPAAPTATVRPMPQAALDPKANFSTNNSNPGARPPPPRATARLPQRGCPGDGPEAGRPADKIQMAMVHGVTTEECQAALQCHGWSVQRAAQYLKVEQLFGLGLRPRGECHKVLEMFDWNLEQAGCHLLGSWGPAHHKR
The data set is described as follows: Off-chip Mobility Shift Assay. The class given is biochemical. Conditions: read-out: IC50, recombinant ACK activity.

Data set [9] concerns the target T6, PDGFRα (Homo sapiens, UniProt P16234).
T6 construct: purchased Carna Biosciences
The experiment in a line: Off-chip Mobility Shift Assay. The class given is biochemical. Particulars: read-out: IC50, recombinant PDGFRα activity.

Data set [10] has as its target T7, PIK3CA/PIK3R1 (Homo sapiens, UniProt P42336).
T7 construct: purchased Carna Biosciences
The data set is described as follows: Off-chip Mobility Shift Assay. Format: biochemical. Particulars: read-out: IC50, recombinant PIK3CA/PIK3R1 activity.

Data set [11] deals with RAF1. The data set is described as follows: Off-chip Mobility Shift Assay. The class given is biochemical. Conditions: 10 nM.
The mark [12] stands for this setting: Sprague-Dawley, rat, plasma, iv, 1 mg/kg, intravenous 1 mg/kg.
Where [13] appears, read: Sprague-Dawley, rat, plasma, po, 5 mg/kg, PO 5 mg/kg.
The mark [14] stands for this setting: Sprague-Dawley, rat, PO 5 mg/kg.

Where two headings read alike, the source gives them in different places.

T2 sequence (P00519 whole entry E255K): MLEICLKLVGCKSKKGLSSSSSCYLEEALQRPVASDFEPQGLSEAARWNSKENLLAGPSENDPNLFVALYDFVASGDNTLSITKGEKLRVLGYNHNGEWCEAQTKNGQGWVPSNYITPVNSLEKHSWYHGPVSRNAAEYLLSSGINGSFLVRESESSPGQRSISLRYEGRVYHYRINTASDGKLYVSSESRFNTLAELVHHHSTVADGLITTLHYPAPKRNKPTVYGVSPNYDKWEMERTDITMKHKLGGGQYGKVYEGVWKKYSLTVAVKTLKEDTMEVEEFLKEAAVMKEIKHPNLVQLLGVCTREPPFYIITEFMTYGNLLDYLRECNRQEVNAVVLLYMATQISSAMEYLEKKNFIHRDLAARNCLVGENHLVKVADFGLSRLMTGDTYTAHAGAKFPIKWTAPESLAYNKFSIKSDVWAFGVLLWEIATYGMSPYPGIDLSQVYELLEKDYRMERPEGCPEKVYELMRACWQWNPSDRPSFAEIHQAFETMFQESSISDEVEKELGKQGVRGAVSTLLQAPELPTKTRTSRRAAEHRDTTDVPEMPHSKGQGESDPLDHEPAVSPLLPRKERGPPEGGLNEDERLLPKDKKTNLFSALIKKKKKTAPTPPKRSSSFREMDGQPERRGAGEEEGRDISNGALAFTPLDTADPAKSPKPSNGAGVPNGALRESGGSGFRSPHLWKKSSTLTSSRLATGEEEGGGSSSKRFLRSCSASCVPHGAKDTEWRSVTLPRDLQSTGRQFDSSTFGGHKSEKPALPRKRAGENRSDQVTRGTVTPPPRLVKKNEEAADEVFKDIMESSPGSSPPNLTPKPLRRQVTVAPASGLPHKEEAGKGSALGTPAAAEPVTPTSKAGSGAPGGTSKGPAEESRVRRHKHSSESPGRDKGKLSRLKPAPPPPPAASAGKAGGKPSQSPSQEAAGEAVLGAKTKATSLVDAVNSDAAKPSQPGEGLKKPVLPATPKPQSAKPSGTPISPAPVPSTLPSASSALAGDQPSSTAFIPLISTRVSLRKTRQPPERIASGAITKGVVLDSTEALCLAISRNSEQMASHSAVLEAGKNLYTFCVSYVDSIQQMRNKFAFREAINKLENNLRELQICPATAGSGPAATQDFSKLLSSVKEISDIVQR
T1 sequence (P00519 whole entry): as the sequence (P00519 whole entry E255K) above, with K255E counted along it
T7 sequence (P42336 whole entry): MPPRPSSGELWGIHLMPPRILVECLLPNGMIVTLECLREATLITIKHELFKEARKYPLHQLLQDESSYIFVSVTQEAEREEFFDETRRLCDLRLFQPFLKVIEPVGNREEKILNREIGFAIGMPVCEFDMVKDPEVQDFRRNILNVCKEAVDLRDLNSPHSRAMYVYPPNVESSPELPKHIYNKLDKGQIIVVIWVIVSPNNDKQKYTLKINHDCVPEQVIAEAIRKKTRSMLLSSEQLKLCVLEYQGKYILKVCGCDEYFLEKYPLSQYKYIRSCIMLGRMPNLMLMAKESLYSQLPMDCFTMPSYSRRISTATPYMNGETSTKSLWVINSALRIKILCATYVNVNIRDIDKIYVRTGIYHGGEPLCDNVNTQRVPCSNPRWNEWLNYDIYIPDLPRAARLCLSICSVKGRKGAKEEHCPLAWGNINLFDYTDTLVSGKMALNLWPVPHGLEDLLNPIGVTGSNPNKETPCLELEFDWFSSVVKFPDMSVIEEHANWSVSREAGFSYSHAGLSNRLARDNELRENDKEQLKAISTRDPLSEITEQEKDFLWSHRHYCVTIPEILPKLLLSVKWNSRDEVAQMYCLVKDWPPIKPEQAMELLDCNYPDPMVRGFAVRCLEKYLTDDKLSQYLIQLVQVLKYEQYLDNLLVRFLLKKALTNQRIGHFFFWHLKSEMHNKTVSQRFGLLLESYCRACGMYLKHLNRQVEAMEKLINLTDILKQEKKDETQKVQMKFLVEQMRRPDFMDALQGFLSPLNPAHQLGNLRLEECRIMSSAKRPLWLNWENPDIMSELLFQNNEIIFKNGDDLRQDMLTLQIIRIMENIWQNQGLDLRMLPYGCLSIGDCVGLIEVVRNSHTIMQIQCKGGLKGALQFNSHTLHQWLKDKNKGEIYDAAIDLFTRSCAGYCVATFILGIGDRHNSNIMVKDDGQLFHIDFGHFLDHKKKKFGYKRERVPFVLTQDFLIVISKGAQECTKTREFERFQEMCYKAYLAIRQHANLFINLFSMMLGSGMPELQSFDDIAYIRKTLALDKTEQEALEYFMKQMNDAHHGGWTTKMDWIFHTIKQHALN
T7 sequence (P27986 whole entry partner): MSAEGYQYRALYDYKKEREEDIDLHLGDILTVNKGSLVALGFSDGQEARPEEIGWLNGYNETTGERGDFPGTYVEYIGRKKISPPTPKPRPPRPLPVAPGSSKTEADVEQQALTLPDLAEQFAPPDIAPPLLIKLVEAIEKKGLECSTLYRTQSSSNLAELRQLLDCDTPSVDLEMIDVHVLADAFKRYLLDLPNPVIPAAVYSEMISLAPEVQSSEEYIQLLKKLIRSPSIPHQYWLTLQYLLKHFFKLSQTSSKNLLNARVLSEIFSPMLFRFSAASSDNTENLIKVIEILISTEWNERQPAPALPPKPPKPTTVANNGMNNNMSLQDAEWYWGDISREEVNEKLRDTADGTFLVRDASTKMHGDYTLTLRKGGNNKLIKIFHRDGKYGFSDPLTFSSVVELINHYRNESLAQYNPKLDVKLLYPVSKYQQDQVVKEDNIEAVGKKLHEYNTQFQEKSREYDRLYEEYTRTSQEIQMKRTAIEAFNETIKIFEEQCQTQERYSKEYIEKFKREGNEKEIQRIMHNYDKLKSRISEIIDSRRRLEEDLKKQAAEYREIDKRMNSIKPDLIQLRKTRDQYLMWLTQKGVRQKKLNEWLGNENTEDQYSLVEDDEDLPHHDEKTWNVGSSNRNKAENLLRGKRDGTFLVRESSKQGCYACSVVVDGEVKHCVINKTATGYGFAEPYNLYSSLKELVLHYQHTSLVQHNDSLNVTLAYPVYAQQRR

Turning to `Cc1nc(Nc2ncc(C(=O)Nc3c(C)cccc3Cl)s2)cc(N2CC[C@H](O)C2)n1` [Compound X, N-(2-chloro-6-methylphenyl)-2-[[2-methyl-6-((S)-3-hydroxypyrrolidin-1-yl)pyrimidin-4-yl]amino]thiazole-5-carboxamide], the IC50 in data set [1] is less than 1 nM. In addition, in [2], the IC50 is less than 1 nM. The IC50 in [3] was less than 1 nM. Further, the IC50 in data set [4] was less than 1 nM. In addition, in [5], the “metabolic stability as compared to dasatinib” value is on record as “significantly greater stability”, the microsomal CLint at 1 μM is less than 24 µL/min/mg and the half-life at 1 μM is more than 0.983 h. In addition, in [6], the “intravenous plasma clearance compared to dasatinib and compound III” value is listed as “much lower”; the “intravenous volume of distribution compared to dasatinib and compound III” value is on record as “significantly lower”. Besides, in [6] (setting [12]), the clearance is 6.75 mL/min/kg, the Vd is 1 L/kg, the AUC(0-inf) was found to be 2520 ± 446 ng·h/mL and the AUC(0-t) worked out at 2520 ± 446 ng·h/mL. Also, the half-life in [6] (setting [12]) is 1.6 ± 0.2 h. In data set [6] (setting [13]), the AUC(0-inf) was found to be 1200 ± 349 ng·h/mL, the AUC(0-t) worked out at 1120 ± 369 ng·h/mL and the half-life is 6.8 ± 4.1 h. In addition, in data set [6] (setting [14]), the Cmax stood at 93 ± 101 ng/mL and the Tmax was 0.5 h. In addition, in [7], the “ratio of lung tissue concentration to plasma concentration as compared to dasatinib” value was “significantly lower”.
As to `Cc1nc(Nc2ncc(C(=O)Nc3c(C)cccc3Cl)s2)cc(N2CC[C@@H](O)C2)n1` [Compound XI, N-(2-chloro-6-methylphenyl)-2-[[2-methyl-6-((R)-3-hydroxypyrrolidin-1-yl)pyrimidin-4-yl]amino]thiazole-5-carboxamide], the IC50 in [1] is less than 1 nM. The IC50 in data set [2] is less than 1 nM. For the same molecule, in [3], the IC50 was less than 1 nM. Further, the IC50 in data set [4] is less than 1 nM. Besides, in [5], the “metabolic stability as compared to dasatinib” value was “significantly greater stability”, the microsomal CLint at 1 μM was less than 24 µL/min/mg and the half-life at 1 μM is more than 0.983 h. In [6], the “intravenous plasma clearance compared to dasatinib and compound III” value is given as “much lower”; the “intravenous volume of distribution compared to dasatinib and compound III” value was “significantly lower”. In addition, in [6] (setting [12]), the clearance is 6.77 mL/min/kg, the Vd was found to be 1 L/kg, the AUC(0-inf) came to 2480 ± 243 ng·h/mL and the AUC(0-t) came out at 2480 ± 243 ng·h/mL. For the same molecule, in data set [6] (setting [12]), the half-life is 1.6 ± 0.2 h. In data set [6] (setting [13]), the AUC(0-inf) was 1500 ± 273 ng·h/mL, the AUC(0-t) came to 1420 ± 343 ng·h/mL and the half-life is 6 ± 3.6 h. Besides, in data set [6] (Sprague-Dawley, rat, plasma, PO 5 mg/kg versus intravenous 1 mg/kg, AUCinf dose normalized (Table 3), read-out: F (percent oral bioavailability)), the bioavailability amounted to 24 ± 33.1%. In data set [6] (setting [14]), the peak concentration (Cmax) amounted to 102 ± 86 ng/mL and the Tmax amounted to 0.5 h. Also, in [7], the “ratio of lung tissue concentration to plasma concentration as compared to dasatinib” value was “significantly lower”.
`[2H]c1cc(C)c(NC(=O)c2cnc(Nc3cc(N4CCCCC4)nc(C)n3)s2)c(Cl)c1` [Compound I, N-(2-chloro-4-deuterio-6-methyl-phenyl)-2-[[2-methyl-6-(1-piperidyl)pyrimidin-4-yl]amino]thiazole-5-carboxamide]: the IC50 was approximately 0.5 nM in [8], approximately 0.2 nM in data set [3], approximately 1.4 nM in data set [9] and approximately 12 nM in data set [10]. The “inhibition of RAF1” value in [11] is listed as less than 50%. Besides, the “metabolic stability as compared to dasatinib” value in data set [5] is listed as “significantly greater stability”.

One may read the clearance as a measure of how efficiently the substance is removed, as volume per time. By AUC(0-inf) is commonly meant the area under the concentration-time curve extrapolated to infinity. Low readings indicate low exposure, high ones high exposure. A word on the AUC(0-t): it is exposure summed from dosing to a finite time, without extrapolation to infinity. Broadly, the Cmax is the highest concentration seen after dosing. One may read the Tmax as the time at which the peak concentration occurs. By bioavailability is commonly meant dose-corrected exposure relative to a reference, in per cent.
